In PubChem BioAssay (NCI):
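Grown in 96-well plates, cells were treated for 48 hours with each compound at five concentrations. Insufficient inhibition: endpoint recorded as highest concentration tested. TGI: total growth inhibition.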 Where a SMILES comes first, the peptide text is derived from it.

Assays:
Test in all cases: growth of human tumour cells (NCI), 48 h
786-0 renal = system: 786-0 renal
A498 renal = system: A498 renal
A549 NSCLC = system: A549 NSCLC
ACHN renal = system: ACHN renal
BT-549 breast = system: BT-549 breast
CAKI-1 renal = system: CAKI-1 renal
CCRF-CEM leukemia = system: CCRF-CEM leukemia
COLO 205 colon = system: COLO 205 colon
DU-145 prostate = system: DU-145 prostate
EKVX NSCLC = system: EKVX NSCLC
HCC-2998 colon = system: HCC-2998 colon
HCT-116 colon = system: HCT-116 colon
HCT-15 colon = system: HCT-15 colon
HL-60(TB) leukemia = system: HL-60(TB) leukemia
HOP-62 NSCLC = system: HOP-62 NSCLC
HOP-92 NSCLC = system: HOP-92 NSCLC
HS 578T breast = system: HS 578T breast
HT29 colon = system: HT29 colon
IGROV1 ovarian = system: IGROV1 ovarian
KM12 colon = system: KM12 colon
M14 melanoma = system: M14 melanoma
MALME-3M melanoma = system: MALME-3M melanoma
MCF7 breast = system: MCF7 breast
MDA-MB-231 breast = system: MDA-MB-231 breast
MDA-MB-435 = system: MDA-MB-435
MDA-N = system: MDA-N
MOLT-4 leukemia = system: MOLT-4 leukemia
NCI-H226 lung = system: NCI-H226 lung
NCI-H23 lung = system: NCI-H23 lung
NCI-H460 lung = system: NCI-H460 lung
NCI-H522 lung = system: NCI-H522 lung
NCI/ADR-RES ovarian = system: NCI/ADR-RES ovarian
OVCAR-3 ovarian = system: OVCAR-3 ovarian
OVCAR-4 ovarian = system: OVCAR-4 ovarian
OVCAR-5 ovarian = system: OVCAR-5 ovarian
OVCAR-8 ovarian = system: OVCAR-8 ovarian
PC-3 prostate = system: PC-3 prostate
RPMI-8226 leukemia = system: RPMI-8226 leukemia
RXF 393 renal = system: RXF 393 renal
SF-268 CNS = system: SF-268 CNS
SF-295 CNS = system: SF-295 CNS
SF-539 CNS = system: SF-539 CNS
SK-MEL-2 melanoma = system: SK-MEL-2 melanoma
SK-MEL-28 melanoma = system: SK-MEL-28 melanoma
SK-MEL-5 melanoma = system: SK-MEL-5 melanoma
SK-OV-3 ovarian = system: SK-OV-3 ovarian
SN12C renal = system: SN12C renal
SNB-19 CNS = system: SNB-19 CNS
SNB-75 CNS = system: SNB-75 CNS
SR leukemia = system: SR leukemia
T-47D breast = system: T-47D breast
TK-10 renal = system: TK-10 renal
U251 CNS = system: U251 CNS
UACC-257 melanoma = system: UACC-257 melanoma
UACC-62 melanoma = system: UACC-62 melanoma
UO-31 renal = system: UO-31 renal
K-562 leukemia = system: K-562 leukemia
LOX IMVI melanoma = system: LOX IMVI melanoma
SW-620 colon = system: SW-620 colon

SMILES: CC(C)CC(NC(=O)C(Cc1ccccc1)NC(=O)C(Cc1c[nH]c2ccccc12)NC(=O)CNC(=O)C(N)Cc1ccc(O)cc1)C(=O)O (configuration not stated) (H-YGWFL-OH; configuration not given here)
- TGI (786-0 renal): 49.4 µM
- TGI (A498 renal): 96 µM
- TGI (A549 NSCLC): > 100 µM
- TGI (ACHN renal): > 100 µM
- TGI (BT-549 breast): > 100 µM
- TGI (CAKI-1 renal): > 100 µM
- TGI (CCRF-CEM leukemia): > 100 µM
- TGI (COLO 205 colon): 32.9 µM
- TGI (DU-145 prostate): > 100 µM
- TGI (EKVX NSCLC): 73.6 µM
- TGI (HCC-2998 colon): 60.2 µM
- TGI (HCT-116 colon): 70.6 µM
- TGI (HCT-15 colon): > 100 µM
- TGI (HL-60(TB) leukemia): 60.9 µM
- TGI (HOP-62 NSCLC): > 100 µM
- TGI (HOP-92 NSCLC): 42.1 µM
- TGI (HS 578T breast): > 100 µM
- TGI (HT29 colon): > 100 µM
- TGI (IGROV1 ovarian): > 100 µM
- TGI (KM12 colon): 57.4 µM
- TGI (M14 melanoma): > 100 µM
- TGI (MALME-3M melanoma): 72.3 µM
- TGI (MCF7 breast): > 100 µM
- TGI (MDA-MB-231 breast): > 100 µM
- TGI (MDA-MB-435): > 100 µM
- TGI (MDA-N): > 100 µM
- TGI (MOLT-4 leukemia): > 100 µM
- TGI (NCI-H226 lung): > 100 µM
- TGI (NCI-H23 lung): > 100 µM
- TGI (NCI-H460 lung): > 100 µM
- TGI (NCI-H522 lung): 95.6 µM
- TGI (NCI/ADR-RES ovarian): > 100 µM
- TGI (OVCAR-3 ovarian): 57 µM
- TGI (OVCAR-4 ovarian): > 100 µM
- TGI (OVCAR-5 ovarian): > 100 µM
- TGI (OVCAR-8 ovarian): > 100 µM
- TGI (PC-3 prostate): > 100 µM
- TGI (RPMI-8226 leukemia): 57.4 µM
- TGI (RXF 393 renal): > 100 µM
- TGI (SF-268 CNS): > 100 µM
- TGI (SF-295 CNS): 88.6 µM
- TGI (SF-539 CNS): 87 µM
- TGI (SK-MEL-2 melanoma): > 100 µM
- TGI (SK-MEL-28 melanoma): > 100 µM
- TGI (SK-MEL-5 melanoma): > 100 µM
- TGI (SK-OV-3 ovarian): > 100 µM
- TGI (SN12C renal): > 100 µM
- TGI (SNB-19 CNS): > 100 µM
- TGI (SNB-75 CNS): 93.9 µM
- TGI (SR leukemia): > 100 µM
- TGI (T-47D breast): 72.9 µM
- TGI (TK-10 renal): > 100 µM
- TGI (U251 CNS): > 100 µM
- TGI (UACC-257 melanoma): > 100 µM
- TGI (UACC-62 melanoma): > 100 µM
- TGI (UO-31 renal): > 100 µM

SMILES: CCCCCCCCCCCCOc1ccc(/C=C/C2=[N+](CCCl)CCO2)cc1
- TGI (786-0 renal): 42.7 µM
- TGI (A498 renal): > 100 µM
- TGI (A549 NSCLC): > 100 µM
- TGI (ACHN renal): > 100 µM
- TGI (BT-549 breast): > 100 µM
- TGI (CAKI-1 renal): > 100 µM
- TGI (CCRF-CEM leukemia): > 100 µM
- TGI (COLO 205 colon): > 100 µM
- TGI (DU-145 prostate): > 100 µM
- TGI (EKVX NSCLC): > 100 µM
- TGI (HCC-2998 colon): > 100 µM
- TGI (HCT-116 colon): 33.5 µM
- TGI (HCT-15 colon): > 100 µM
- TGI (HL-60(TB) leukemia): 28.8 µM
- TGI (HOP-62 NSCLC): > 100 µM
- TGI (HOP-92 NSCLC): 86.5 µM
- TGI (HS 578T breast): > 100 µM
- TGI (HT29 colon): > 100 µM
- TGI (IGROV1 ovarian): 77.6 µM
- TGI (K-562 leukemia): > 100 µM
- TGI (KM12 colon): > 100 µM
- TGI (LOX IMVI melanoma): 39.9 µM
- TGI (M14 melanoma): > 100 µM
- TGI (MALME-3M melanoma): > 100 µM
- TGI (MCF7 breast): > 100 µM
- TGI (MDA-MB-231 breast): > 100 µM
- TGI (MDA-MB-435): > 100 µM
- TGI (MDA-N): > 100 µM
- TGI (MOLT-4 leukemia): > 100 µM
- TGI (NCI-H226 lung): > 100 µM
- TGI (NCI-H460 lung): > 100 µM
- TGI (NCI-H522 lung): 47 µM
- TGI (NCI/ADR-RES ovarian): > 100 µM
- TGI (OVCAR-3 ovarian): 37.9 µM
- TGI (OVCAR-4 ovarian): > 100 µM
- TGI (OVCAR-5 ovarian): > 100 µM
- TGI (OVCAR-8 ovarian): > 100 µM
- TGI (PC-3 prostate): > 100 µM
- TGI (RPMI-8226 leukemia): > 100 µM
- TGI (SF-295 CNS): > 100 µM
- TGI (SF-539 CNS): > 100 µM
- TGI (SK-MEL-2 melanoma): > 100 µM
- TGI (SK-MEL-28 melanoma): > 100 µM
- TGI (SK-MEL-5 melanoma): > 100 µM
- TGI (SK-OV-3 ovarian): > 100 µM
- TGI (SN12C renal): > 100 µM
- TGI (SNB-19 CNS): > 100 µM
- TGI (SNB-75 CNS): > 100 µM
- TGI (SR leukemia): 50.9 µM
- TGI (SW-620 colon): > 100 µM
- TGI (T-47D breast): > 100 µM
- TGI (TK-10 renal): > 100 µM
- TGI (U251 CNS): 58.4 µM
- TGI (UACC-257 melanoma): > 100 µM
- TGI (UACC-62 melanoma): > 100 µM
- TGI (UO-31 renal): > 100 µM
